The test system of one series is human Hep3B HCC. Description: Hep3B hepatocellular carcinoma transplanted into athymic Balb/c mice (Example 2). It is filed as in vivo. As to conditions: for hepatic/splenic NKT lymphocyte ratio / reduction of tumor volume (% change from maximal volume) / tumors developed (% of animals) / maximal tumor volume: daily i.p. 1.5 μg for 25 days; for hepatic/splenic NKT lymphocyte ratio: PBS control 0.38, p<0.05, FIG. 7; for reduction of tumor volume (% change from maximal volume): controls 10% increase, p<0.05, FIG. 6; for tumors developed (% of animals): controls 100%, FIG. 4; for maximal tumor volume: controls 101.14 mm^3, p<0.05, FIG. 5; for STAT4 expression in splenocytes / STAT6 expression in splenocytes: vs. controls, FIG. 9. The source says: Splenocytes were isolated and red blood cells removed as previously described [Vicari, A. P., et al., Immunology Today 17(2):71 (1996)]. Intrahepatic lymphocytes were isolated from all groups of mice at the end of the study, as previously described, with some modifications [Vicari et al., (1996) ibid.; Bleicher, P. A., et al., Science 250:679-682 (1990)]. […] The connective tissue and the gall bladder were removed, and livers were place in a 10-ml dish in cold sterile PBS. Livers and spleens were crushed through a stainless mesh (size 60, Sigma Chemical Co., St. Louis Mo.). Cell suspension was placed in a 50 ml tube for 3 minutes and washed twice in cold PBS (1,250×rpm for 10 minutes), and debris was removed. Cells were re-suspended in PBS, cell suspension was placed through a nylon mesh presoaked in PBS, and unbound cells were collected. Cells were washed twice in 45 ml PBS (1,250×rpm in room temperature). For liver and spleen lymphocyte isolation 20 ml of histopague 1077 (Sigma Diagnostics, St. Louis, Mo.) were slowly placed underneath the cells suspended in 7 ml of PBS, in a 50-ml tube. The tube was centrifuged at 1,640 rpm for 15 minutes at room temperature. Cells at the interface were collected, diluted in a 50-ml tube, and washed twice with ice-cold PBS (1,250 rpm for 10 minutes). Approximately 1×10^6 cells/mouse liver were recovered. The viability by trypan blue staining was more than 95%. Both splenocytes and liver-associated lymphocytes were isolated from all animals in all experimental groups.
Immediately following lymphocyte isolation, triplicates of 2-5×10^4 cells/500 μl PBS were put into Falcon 2052 tubes incubated with 4 ml of 1% BSA for 10 minutes, and centrifuged at 1400 rpm for 5 minutes. Analysis of lymphocyte subpopulations was performed using anti-NK1.1, anti-CD3, anti-CD4 and anti CD-8 antibodies. Cells were washed twice in 1% BSA, and kept in 4° C. until reading. For the control group, only 5 μl of 1% BSA was added. Analytical cell sorting was performed on 1×10^4 cells from each group with a fluorescence-activated cell sorter (FACSTAR plus, Becton Dickinson). Only live cells were counted, and background fluorescence from non-antibody-treated lymphocytes was deducted from the levels obtained. Gates were set on forward- and side-scatters to exclude dead cells and red blood cells. The data were analyzed with Consort 30 two-color contour plot program (Becton Dickinson, Oxnard, Calif.), or the CELLQuest program.
Blood was drawn from mice in all groups and centrifuged at 14,000 rpm. Serum INFγ, IL2, IL4, IL10 and IL-12 levels were measured by “sandwich” ELISA using Genzyme Diagnostics kits (Genzyme Diagnostics, Mass.).
To determine the clinical and immunological consequences of administration of different β-glycolipids such as β-glucosylceramide (GluC), β-lactosyl-ceramide (LacC), and β-galactosyl-ceramide (GalC) and of ceramide on hepatocellular carcinoma (HCC), mice transplanted with human Hep3B HCC cells, were studied. Five groups of athymic Balb/c mice, consisting of 8 mice each, were sublethally irradiated and transplanted with human Hep3B HCC, followed by daily intraperitoneal injections of GluC, LacC, GalC, ceramide (1.5 μg in 100 μl PBS) or PBS (100μ) for 25 days. Animals were followed for tumor size and weight and for intrahepatic and intrasplenic lymphocyte subpopulations, serum cytokine levels and expression of STAT1, STAT4 and STAT6 in splenocytes.

The subject of the next series is TNBS induced colitis. The series is described as follows: TNBS-induced colitis, mixture of β-GluC and β-LacC vs β-LacC alone (Example 3). The format is in vivo, mice. Particulars: with TNBS; for Weight: share of mice, TNBS alone: Weight loss, listed as β-LC. The procedure: (§1) 2,4,6-trinitrobenzene sulfonic acid (TNBS)—colitis was induced by intracolonic instillation of TNBS, 1 mg/mouse, dissolved in […] of 50% ethanol as described. [Collins, C., etal., Eur. J. Immunol. 26:3114-3118 (1996)].
(§2) Diarrhea was followed daily throughout the study.
(§3) Colitis assessment was performed 14 days following colitis induction using standard parameters [Madsen, K. L., et al., Gastroenterology 113:151-159 (1997); Trop, S., et al., Hepatology 27:746-755 (1999)].
Four macroscopic parameters were determined, namely: degree of colonic ulcerations; intestinal and peritoneal adhesions; wall thickness; and degree of mucosal edema. Each parameter was graded on a scale from 0 (completely normal) to 4 (most severe) by two experienced blinded examiners.
For histological evaluation of inflammation, distal colonic tissue (last 10 cm) was removed and fixed in 10% formaldehyde. Five paraffin sections from each mouse were then stained with hematoxylin-eosin by using standard techniques. The degree of inflammation on microscopic cross sections of the colon was graded semiquantitatively from 0 to 4 [Madsen et al., (1997) ibid.; Trop et al., Hepatology 27:746-755 (1999)]. Grade 0: normal with no signs of inflammation; Grade 1: very low level of leukocyte infiltration; Grade 2: low level of leukocyte infiltration; and Grade 3: high level of infiltration with high vascular density, and bowel wall thickening; Grade 4: transmural infiltrates with loss of goblet cells, high vascular density, wall thickening, and disruption of normal bowel architecture. The grading was performed by two experienced blinded examiners.
To determine the possible immuno-modulation effect of a mixture of different β-glycolipids, the effect of a mixture of β-Glucocerebroside and β-Lactosyl-ceramide was tested using a murine model of colitis.
As summarized in Table 3, five groups of mice were studied, each consisting of 10 mice. Colitis was induced by intracolonic installation of trinitrobenzenesulfonic acid (TNBS) on day 1 and 5 in groups A, B and D. Group A mice were fed regular chow diet. […]

Another series has as its system TNBS colitis. Description: TNBS-induced experimental colitis, single β-glycolipids (Example 1). It is filed as in vivo, C57Bl mice. Particulars: oral 15 μg daily, compared with controls. The protocol:
as §1, §2, §3
Four macroscopic parameters were determined, namely: degree of colonic ulcerations; intestinal and peritoneal adhesions; wall thickness; and degree of mucosal edema. Each parameter was graded on a scale from 0 (completely normal) to 4 (most severe) by two experienced blinded examiners. […]
Immediately following lymphocyte isolation, triplicates of 2-5×10^4 cells/500 μl PBS were put into Falcon 2052 tubes incubated with 4 ml of 1% BSA for 10 minutes, and centrifuged at 1400 rpm for 5 minutes. […] Cells were washed twice in 1% BSA, and kept in 4° C. until reading. […] Analytical cell sorting was performed on 1×10^4 cells from each group with a fluorescence-activated cell sorter (FACSTAR plus, Becton Dickinson). Only live cells were counted, and background fluorescence from non-antibody-treated lymphocytes was deducted from the levels obtained. […]

The nature of series [1]: Mixture of β-GluC and β-LacC or β-LacC alone in mice not treated with TNBS, control groups (Example 3). The format is in vivo. Particulars: without TNBS. The protocol: As summarized in Table 3, five groups of mice were studied, each consisting of 10 mice. Colitis was induced by intracolonic installation of trinitrobenzenesulfonic acid (TNBS) on day 1 and 5 in groups A, B and D. Group A mice were fed regular chow diet. Group B mice received oral (PO) 15 μg daily of a mixture of β-GluC and β-LacC, group D received only β-LacC. Groups C and E mice were not treated with TNBS, but received oral (PO) 15 μg daily of a mixture of β-GluC and β-LacC or only β-LacC, respectively, and served as control groups.
Mice were followed for macroscopic and microscopic colitis scores, as well as for survival and functional status and weight.

For ceramide, in the series on human Hep3B HCC, the “hepatic/splenic NKT lymphocyte ratio” value came to 0.85, the “reduction of tumor volume (% change from maximal volume)” value was 81%, the “tumors developed (% of animals)” value was 50% and the maximal tumor volume came out at 64.4 mm^3. In the series on human Hep3B HCC, the “STAT4 expression in splenocytes” value is recorded as “increased” and the “STAT6 expression in splenocytes” value is given as “increased”.
Take β-galactosyl-ceramide [GalC]: in the series with human Hep3B HCC, the “reduction of tumor volume (% change from maximal volume)” value stood at 49%, the “tumors developed (% of animals)” value is 71%, the maximal tumor volume was 86.1 mm^3 and the “STAT4 expression in splenocytes” value is on record as “increased”. Moreover, the “STAT6 expression in splenocytes” value in the series on human Hep3B HCC is “increased”.
Take β-glucosylceramide: in the series with human Hep3B HCC, the “hepatic/splenic NKT lymphocyte ratio” value turned out to be 6.13, the “reduction of tumor volume (% change from maximal volume)” value is reported as 43%, the “tumors developed (% of animals)” value is listed as 87% and the maximal tumor volume is given as 71.4 mm^3.
Regarding β-lactosyl-ceramide [LacC], the Weight result in the series on TNBS induced colitis (share of mice with no weight change) is recorded as “In 90% no change”. Also, the Weight entry with TNBS induced colitis (share of mice with weight increase) is “In 10% increase”. Moreover, in the series with TNBS induced colitis (TNBS alone: Lethargic), the Activity entry is on record as “Normal”. In the series on human Hep3B HCC, the “hepatic/splenic NKT lymphocyte ratio” value was 1.94, the “reduction of tumor volume (% change from maximal volume)” value is on record as 78%, the “tumors developed (% of animals)” value amounted to 43% and the maximal tumor volume worked out at 77.9 mm^3. Moreover, in the series on human Hep3B HCC, the “STAT4 expression in splenocytes” value is “increased” and the “STAT6 expression in splenocytes” value was “increased”. In the series with TNBS colitis (FIG. 1), the “alleviation of colitis (microscopic colitis scores)” value was “most marked”. Further, in the series on TNBS colitis (FIG. 1, listed as Lactosyl-ceramide), the “alleviation of colitis (microscopic colitis scores)” value was “most potent”. Besides, in series [1], the Activity entry is recorded as “Normal”. In addition, in series [1] (share of mice), the Weight result is reported as “In 100% increase”.

The values above are taken from patent US7897580B2, “β glycolipids as immuno-modulators” (priority 2005, dated 2011).
